Consider 88 substances from article PMC12057046, “Elucidation of short linear motif-based interactions of the MIT and rhodanese domains of the ubiquitin-specific protease 8” (Biology Direct, 2025).

The first assay concerns the target T1, USP8 Rhod domain (Homo sapiens, UniProt P40818).
T1 construct: USP8 Rhod (174–317) (UniProt: P40818); GST (cleaved yes); made in house; host or cells: Escherichia coli BL21-Gold (DE3)
T1 sequence (P40818 174-317): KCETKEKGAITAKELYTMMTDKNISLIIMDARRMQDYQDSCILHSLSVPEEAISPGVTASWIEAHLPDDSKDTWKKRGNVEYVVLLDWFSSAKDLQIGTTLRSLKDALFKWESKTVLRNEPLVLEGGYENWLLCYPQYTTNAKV
The assay can be described thus: Peptide-phage display-based deep mutational scanning (DMS), USP8 Rhod domain. The class given is binding. The note with it: PSSM, library USP8_DMS, days 2,3; position 7. The method, then:
Four rounds of phage selections were carried out using the second generation human disorderome library or the constructed deep mutational scanning library. At least three individual replicates were used for each bait protein. 10 µg of GST-tagged proteins or GST control (diluted in PBS from the stock of proteins kept in the purification elution buffer) were immobilized in 100 µL PBS on a 96-well MaxiSorp (Nunc) plate overnight at 4 °C. The plates were incubated with blocking buffer (with 0.5% BSA in PBS) for 1 h at 4 °C followed by washing with 0.05% Tween 20 in PBS four times. The naïve phage library (10^11 CFU) was diluted in 1/5th volume PEG/NaCl (20% PEG-8000, 0.4 M NaCl) and 1X PBS, incubated on ice for 10 min and centrifuged at 10,000 [drawing 3] g for 10 min. The pellet was resuspended in the volume of PBS (100 µL/ well). The GST-coated control plate was incubated with 100 µL library per well in PBS for 1 h at 4 °C to remove non-specific binders. The supernatant was transferred to the target wells and incubated for 2 h at 4 °C. The wells were washed five times with 0.05% Tween 20 in PBS and the bound phages were eluted with 100 µL per well log-phase E. coli OmniMAX by incubating at 37° C while shaking. After 30 min, M13KO7 helper phages were added and incubated for an additional 45 min. The bacterial cultures were transferred to 1 mL 2YT supplemented with 100 µg/mL carbenicillin, 30 µg/mL kanamycin and 0.3 mM IPTG and grew overnight at 37 °C while shaking. The following day the cultures were centrifuged for 10 min at 2,000 [drawing 4] g, 4 °C. 1/10th volume of 10 [drawing 5] PBS was added to adjust the pH and heated at 65 °C for 10 min. The phage pools from each round were used as in-phages for the next round of selections.
The samples were prepared for NGS as previously described. […] The PCR products were normalized with 25 µL Mag-bind Total Pure NGS beads (Omega Biotek) and 10 µL of each eluted sample (Qiagen Elution Buffer) was pooled and cleaned-up with a PCR purification kit (Qiagen). The PCR product was confirmed by 2% agarose electrophoresis and the band was extracted with QIAquick Gel extraction Kit (Qiagen) and eluted with 30 µL TE buffer. The dsDNA was quantified using QuantiT PicoGreen dsDNA Assay Kit (Thermo Fisher) and sent for NGS (Illumina MiSeq v3, 1 × 150 bp read setup, 20% PhiX, NGI SciLifeLab facility, Sweden). The NGS data were demultiplexed, adapter regions were trimmed and sequences with an average quality of at least 20 were translated to peptide sequences. The NGS data were analysed using custom Python scripts. The total read NGS counts for each selection experiment of each peptide sequence were compiled and annotated in PepTools (https://slim.icr.ac.uk/tools/peptools/). Since ProP-PD is in essence a competition assay, the possibility of the input phage library influencing the selection outcome was explored. […] Pearson correlation coefficient and p-value were calculated using Python’s SciPy library.
For the substance “KIAA1614_Q5VZ46_569_584 G7H (MERVLGHLSSPLRLLP; UniProt Q5VZ46 569-584, looked up, variant G7H)”, the “enrichment_relative_to_wt at position 7 (wt G)” value was -7.58 and the “proportion of amino acid at position 7 (wt G)” value was 0.00204. Turning to “KIAA1614_Q5VZ46_569_584 G7T (MERVLGTLSSPLRLLP; peptide 569-584; UniProt Q5VZ46 569-584, looked up, variant G7T)”, the “enrichment_relative_to_wt at position 7 (wt G)” value came out at 30 and the “proportion of amino acid at position 7 (wt G)” value was determined as 0.46.

The assay is the same for the next values; noted with them: PSSM, library USP8_DMS, days 2,3; position 10.
In the case of “KIAA1614_Q5VZ46_569_584 S10E (MERVLGGLSEPLRLLP; UniProt Q5VZ46 569-584, looked up, variant S10E)”, the “enrichment_relative_to_wt at position 10 (wt S)” value is on record as -77 and the “proportion of amino acid at position 10 (wt S)” value amounted to 0.00734. For the substance “KIAA1614_Q5VZ46_569_584 S10V (MERVLGGLSVPLRLLP; peptide 569-584; UniProt Q5VZ46 569-584, looked up, variant S10V)”, the “enrichment_relative_to_wt at position 10 (wt S)” value was -328 and the “proportion of amino acid at position 10 (wt S)” value was 0.00172.

The assay is the same for the next values; noted with them: PSSM, library USP8_DMS, days 2,3; position 15.
With “KIAA1614_Q5VZ46_569_584 L15N (MERVLGGLSSPLRLNP; peptide 569-584; UniProt Q5VZ46 569-584, looked up, variant L15N)”, the “enrichment_relative_to_wt at position 15 (wt L)” value was -89 and the “proportion of amino acid at position 15 (wt L)” value was determined as 0.0109.

The assay is the same for the next values; noted with them: ProP-PD DMS, bait USP8_Rhodanese__P40818_174_317; pair wild-type GMERVLGGLSSPLRLL (wt_00013) vs mutant; positive where wild-type fraction is higher, negative where mutant fraction is higher.
Substance GMERVLGGLSSPLWLL returned a hit_pair_ratio of -1.66. For GMERVLGGLSSPYRLL, the hit_pair_ratio stood at 16.65. GMERVLGGLSSPNRLL displayed a hit_pair_ratio of 321.97. GMERVLGGHSSPLRLL came in with a hit_pair_ratio of 49.95. For GMERVLGGLSSTLRLL, the hit_pair_ratio was 131.67. The same measure, in the same setting: in the case of GMERVLGGLSSPLRLF it was 80.49.

GMERVLGGLSSPVRLL gave a hit_pair_ratio of 5.59. The same measure, in the same setting: in the case of GMERVLGGFSSPLRLL it was 53.66; in that of GMERVLGGLSSPLRVL, 160.99; in that of GMERVLGGYSSPLRLL, 32.92. In turn, GMERVLGGRSSPLRLL gave a hit_pair_ratio of 160.99. GMERVLGGLSSPDRLL: the hit_pair_ratio came out at 54.66. On the same count and under the same terms, to GMERVLGGLSSPLMLL belongs -10.76. In turn, GMERVLGGLSEPLRLL yielded a hit_pair_ratio of 15.92.

The substance GMERVLGGLSNPLRLL had a hit_pair_ratio of -9.56. Turning to GMERVLGGLSSPLRLG, the hit_pair_ratio came out at 321.97.

The same assay, now with this note: ProP-PD pairs, bait USP8_Rhodanese__P40818_174_317; wild-type/mutant pair, wild type KIAA1614 569-584 GMERVLGGLSSPLRLL (wt_00013).
GMERTLGGLSSPLRLL showed a hit_pair_ratio of -5.12. With GMERVLGGTSSPLRLL, the hit_pair_ratio is listed as -7.40.

The substance RMERVLGGLSSPLRLL returned a hit_pair_ratio of 3.82. The same measure, in the same setting: in the case of WMERVLGGLSSPLRLL it was 1.49; in that of GMERVLGGDSSPLRLL, -19.26; in that of GMETVLGGLSSPLRLL, 321.97.

In turn, GMERVLGTLSSPLRLL registered a hit_pair_ratio of 321.97. Regarding GMWRVLGGLSSPLRLL, the hit_pair_ratio is reported as 15.33. In turn, GMERVLHGLSSPLRLL had a hit_pair_ratio of 6.31. GSERVLGGLSSPLRLL registered a hit_pair_ratio of -3.84. Still for that read-out and setting: to GMERVSGGLSSPLRLL belongs 321.97. GMERVLGDLSSPLRLL had a hit_pair_ratio of 321.97. GEERVLGGLSSPLRLL returned a hit_pair_ratio of -32.83. As for GYERVLGGLSSPLRLL, the hit_pair_ratio is 1.08. DMERVLGGLSSPLRLL registered a hit_pair_ratio of 1.56. Take GMERFLGGLSSPLRLL: the hit_pair_ratio is on record as -9.37. Same read-out and setting: to YMERVLGGLSSPLRLL belongs 10.06; to FMERVLGGLSSPLRLL, 321.97; to GMERYLGGLSSPLRLL, -2.09. The substance GRERVLGGLSSPLRLL displayed a hit_pair_ratio of 1.40.

On to GMERVLQGLSSPLRLL, for which the hit_pair_ratio is listed as -3.38. In turn, GMNRVLGGLSSPLRLL returned a hit_pair_ratio of 2.27. With GMPRVLGGLSSPLRLL, the hit_pair_ratio is on record as 21.46.

The assay is the same for the next values; noted with them: bait USP8_Rhodanese__P40818_174_317; wild-type/mutant pair ratio of averaged fractions; negative values where mutant fraction is higher.
For GLALWEAKMKQFAERA, the hit_pair_ratio is recorded as 553.50. Take GLALWEAKMKQLAEPA: the hit_pair_ratio is reported as -18.07. In the case of GLALWEAKMLQLAERA, the hit_pair_ratio was found to be 26.20. With GLALWEAKMKHLAERA, the hit_pair_ratio was found to be 17.96. On to GLALWEAKMKQLAEQA, for which the hit_pair_ratio was -4.51. As to GLALWEAKMKQSAERA, the hit_pair_ratio is reported as 1107.01.

In the case of GLALWEAKMKQLAERT, the hit_pair_ratio is listed as 1.21. For the substance GLALWEAKMKQLATRA, the hit_pair_ratio is 553.50. Regarding GLALWEAKMKTLAERA, the hit_pair_ratio is listed as 33.74.

For GLALWEAKMKKLAERA, the hit_pair_ratio came to 417.62. As to GLALWEAKMKQIAERA, the hit_pair_ratio is on record as 1107.01. GLALWEAKMKYLAERA: the hit_pair_ratio was 55.35. Turning to GLALWEAKMKQMAERA, the hit_pair_ratio came to 1107.01. As to GLALWEAKMKQLAEDA, the hit_pair_ratio amounted to 66.48. Same read-out and setting: to GLALWEAKMKGLAERA belongs 5.73; to GLALWEAKMDQLAERA, 25.01.

For SMERVLGGLSSPLRLL, the hit_pair_ratio was -2.25. Take GLALWEAKMKQLAERI: the hit_pair_ratio is -1.09. Same read-out and setting: in the case of GLALWEAKMQQLAERA it was 31.63.

For the substance GLALWEAKMKQLALRA, the hit_pair_ratio was determined as 13.05. Consider GLALWEAKMKQLAEKA, for which the hit_pair_ratio was 12.41. For the substance HMERVLGGLSSPLRLL, the hit_pair_ratio is reported as -2.43. For GLALWEAKMKQLAERE, the hit_pair_ratio stood at 4.16. As to GLALWEAKMKQLLERA, the hit_pair_ratio came to 31.22. GLALWEAKMSQLAERA: the hit_pair_ratio is given as -7.21. Still for that read-out and setting: to GLALWEAKMKQLAVRA belongs 20.13.

The same assay, now with this note: wild type/mutant pair; bait USP8_Rhodanese__P40818_174_317; vs hit_library_peptide_wt GLALWEAKMKQLAERA; negative where mutant fraction exceeds wild type; ProP-PD pairs (sheet S7.B).
The substance GLALWEAKAKQLAERA returned a hit_pair_ratio of 7.49.

Substance GLAQWEAKMKQLAERA showed a hit_pair_ratio of 10.90. Substance GLALKEAKMKQLAERA yielded a hit_pair_ratio of 553.50.

As to GLADWEAKMKQLAERA, the hit_pair_ratio is 1107.01.

In turn, GLALWDAKMKQLAERA showed a hit_pair_ratio of 51.13. Turning to GLALWGAKMKQLAERA, the hit_pair_ratio is reported as 24.44. RLALWEAKMKQLAERA: the hit_pair_ratio came out at 1107.01. Consider GLELWEAKMKQLAERA, for which the hit_pair_ratio is recorded as -13.35. GLALWEAKNKQLAERA came in with a hit_pair_ratio of 276.75. Still for that read-out and setting: to QLALWEAKMKQLAERA belongs 553.50; to GLALWYAKMKQLAERA, 417.62.

Take GLPLWEAKMKQLAERA: the hit_pair_ratio is 10.62. Same read-out and setting: to GLAHWEAKMKQLAERA belongs 369.00. On the same count and under the same terms, in the case of GIALWEAKMKQLAERA it was 1.27. The same measure, in the same setting: to GLQLWEAKMKQLAERA belongs -1.71.

Consider GLALGEAKMKQLAERA, for which the hit_pair_ratio was 65.12. Still for that read-out and setting: to GLALWERKMKQLAERA belongs 1107.01; to GVALWEAKMKQLAERA, -1.59.
